# In article doi:10.1101/2025.03.24.645127v1 (biorxiv, 2025):
# Target: T1, GPR119 (Homo sapiens, UniProt Q8TDV5)
# T1 sequence (Q8TDV5 1-335): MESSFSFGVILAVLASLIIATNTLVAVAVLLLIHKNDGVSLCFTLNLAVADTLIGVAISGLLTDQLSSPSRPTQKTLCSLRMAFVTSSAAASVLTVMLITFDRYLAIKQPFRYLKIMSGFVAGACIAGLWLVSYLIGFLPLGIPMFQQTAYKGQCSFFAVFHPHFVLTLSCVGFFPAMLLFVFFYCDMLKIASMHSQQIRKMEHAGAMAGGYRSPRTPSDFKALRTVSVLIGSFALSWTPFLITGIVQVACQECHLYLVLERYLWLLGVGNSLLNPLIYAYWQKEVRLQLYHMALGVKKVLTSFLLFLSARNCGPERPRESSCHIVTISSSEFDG
# Experiment: cAMP GloSensor assay in CHO-K1
# Assay type: cell-based
smiles,measurement,value
COC(=O)N[C@H](C(=O)N[C@@H](Cc1ccccc1)[C@@H](O)CN(Cc1ccc(-c2ccccn2)cc1)NC(=O)[C@@H](NC(=O)OC)C(C)(C)C)C(C)(C)C [atazanavir],EC50,~3 µM
